Data as given in BindingDB's records for doi:10.1021/jm801583j (Bristol-Myers Squibb, 2009).

Target: T1, Androgen receptor (Homo sapiens, UniProt P10275)
T1 sequence (P10275 whole entry): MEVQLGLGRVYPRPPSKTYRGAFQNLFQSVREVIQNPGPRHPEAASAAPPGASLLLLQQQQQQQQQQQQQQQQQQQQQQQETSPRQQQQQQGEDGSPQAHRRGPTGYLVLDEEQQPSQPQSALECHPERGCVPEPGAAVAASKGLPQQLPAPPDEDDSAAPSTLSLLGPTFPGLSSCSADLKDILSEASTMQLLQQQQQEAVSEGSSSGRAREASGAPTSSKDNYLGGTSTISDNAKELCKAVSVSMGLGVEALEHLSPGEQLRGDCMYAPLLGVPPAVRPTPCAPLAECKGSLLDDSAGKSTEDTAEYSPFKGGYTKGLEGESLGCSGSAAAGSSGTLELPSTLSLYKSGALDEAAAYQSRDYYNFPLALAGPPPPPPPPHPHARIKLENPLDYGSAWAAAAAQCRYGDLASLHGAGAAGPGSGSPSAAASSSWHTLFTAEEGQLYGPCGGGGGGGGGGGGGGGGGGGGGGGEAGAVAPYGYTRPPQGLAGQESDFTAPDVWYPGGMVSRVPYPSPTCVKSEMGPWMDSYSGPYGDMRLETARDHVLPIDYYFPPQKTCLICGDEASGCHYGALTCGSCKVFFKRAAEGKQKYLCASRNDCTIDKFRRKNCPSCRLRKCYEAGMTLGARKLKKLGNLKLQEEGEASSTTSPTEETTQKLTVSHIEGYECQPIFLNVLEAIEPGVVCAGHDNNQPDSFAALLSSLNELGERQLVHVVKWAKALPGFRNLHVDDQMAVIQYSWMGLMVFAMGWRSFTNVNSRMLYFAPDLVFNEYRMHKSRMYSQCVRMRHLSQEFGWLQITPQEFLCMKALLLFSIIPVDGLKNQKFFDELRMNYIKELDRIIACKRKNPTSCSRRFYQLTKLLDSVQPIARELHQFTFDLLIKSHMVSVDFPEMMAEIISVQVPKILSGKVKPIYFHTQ
Test: Receptor Binding Assay (Ki) and Transactivation Assay (EC50)
Conditions: pH 7.6; 22 °C
Protocol: Binding assays were conducted by incubating test compound at various concentrations with [3H]DHT with human cancer epithelial breast cell lines MDAMB-45. IC50 value was obtained from dose-response displacement curves. The inhibition constant (Ki) was calculated from IC50 value by the Cheng and Prusoff equation. EC50 value was obtained from functional transactivation assay, which was conducted to assess the potency and efficacy of agonist/antagonist in stably transfected mouse myoblast C2C12 cell line utilizing a luciferase reporter.

Cc1c(N2/C(=N/C#N)N3CC[C@H](O)[C@H]3[C@@H]2C)ccc(C#N)c1Cl [cyanoguanidine, 15]
EC50: 1110 nM
Ki: 17 nM

Cc1c(/N=C2\O[C@H](C(C)C)[C@@H]3[C@H](O)CCN23)ccc(C#N)c1Cl [oxazolidin-2-imine, 6g]
EC50: 3.7 nM
Ki: 0.7 nM
